{
  "source": "patent US20250361240A1",
  "about": "“PYRANOPYRIDINE COMPOUND, PROCESS FOR PREPARING THE SAME, PHARMACEUTICAL COMPOSITION AND USE THEREOF” (Zhejiang Yangli Pharmaceutical Technology Co., Ltd., priority 2024, published 2025)",
  "key": {"human CYP11B2": {"molecular_target": "human CYP11B2 (Homo sapiens (Human), UniProt P19099)", "sequence (P19099 25-503)": "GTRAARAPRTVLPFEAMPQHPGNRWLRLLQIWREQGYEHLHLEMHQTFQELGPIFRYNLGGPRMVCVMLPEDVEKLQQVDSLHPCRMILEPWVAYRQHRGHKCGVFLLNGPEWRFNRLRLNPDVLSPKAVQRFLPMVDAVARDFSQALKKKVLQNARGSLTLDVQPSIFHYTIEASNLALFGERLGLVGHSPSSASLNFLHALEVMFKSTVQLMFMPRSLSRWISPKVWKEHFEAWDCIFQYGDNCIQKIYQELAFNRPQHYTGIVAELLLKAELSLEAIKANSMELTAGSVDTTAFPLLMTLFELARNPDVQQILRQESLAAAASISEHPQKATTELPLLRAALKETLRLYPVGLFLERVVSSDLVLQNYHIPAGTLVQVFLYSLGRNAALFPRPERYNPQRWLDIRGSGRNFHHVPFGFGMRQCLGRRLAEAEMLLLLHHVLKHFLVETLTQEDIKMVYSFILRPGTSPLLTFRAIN", "test": "Inhibitory activity against hCYP11B2 in G-402 CYP11B2 high expression stable transformants (aldosterone HTRF)", "assay_type": "cell-based", "experimental": "(§1) 1. Experimental System: G-402 CYP11B2 or CYP11B1 High Expression Stable Transformants\n(§2) The above-mentioned high-expression stable transformants were constructed based on human […] cell line G-402. The artificial lentiviruses were introduced into human CYP11B2 (NM_000498.3) and CYP11B1 (NM_000497.4), respectively.\n(§3) Maintenance medium: McCoy's 5A (modified, #16600082, GIBCO)+10% FBS (GIBCO)+1 μg/mL puromycin (A1113803, GIBCO).\n(§4) Resuscitation and seeding medium: McCoy's 5A (modified, #16600082, GIBCO)+10% FBS (GIBCO).\n(§5) Reaction medium: DMEM/F12 (#11320033, GIBCO)+2.5% activated charcoal filtered FBS (S11695, R & D).\n(§6) Seeding: Cells were cultured to a suitable state after resuscitation with maintenance medium, and 96-well flat plates were seeded with seeding medium according to 1×10^4/100 μL/well (unified cell volume).\n(§7) Changing solution: The supernatant was aspirated and discarded after seeding overnight (>12 hours) and adherence. 100-150 μL/well serum-free medium was added, and after being aspirated. After aspiration, 50 μL/well reaction medium was added for later use.\n(§8) Formulation: Compound was diluted with reaction medium containing 0.4 μM substrate (final experimental concentration is 0.2 μM):\nCYP11B2 substrate: 11-deoxycorticosterone (11-deoxycorticosterone, S4243, selleckchem). The final reaction concentration was 0.2 μM\n(§9) Loading: The above compound dilutions were added to the cell plates at 50 μL/well. The background and control wells were set.\n(§10) Treating and sampling: The cell plates were incubated in a cell incubator for 16 hours after loading, and then each cell plate was centrifuged at 450 g for 2 min. 75 μL supernatant was transferred to a collection plate and frozen at −80° C. for future use (or direct detection).\n(§11) Detection: Homogeneous time-resolved fluorescence kit (Cisbio HTRF kit, Cat.64ALDPEG, Cat.62CRTPEG) was used to determine the concentration of aldosterone or cortisol in the supernatant.\n(§12) Analysis: The absolute IC50 (Abs IC50) for each compound was calculated using a four parameter fit."}, "human CYP11B1": {"molecular_target": "human CYP11B1 (Homo sapiens (Human), UniProt P15538)", "sequence (P15538 25-503)": "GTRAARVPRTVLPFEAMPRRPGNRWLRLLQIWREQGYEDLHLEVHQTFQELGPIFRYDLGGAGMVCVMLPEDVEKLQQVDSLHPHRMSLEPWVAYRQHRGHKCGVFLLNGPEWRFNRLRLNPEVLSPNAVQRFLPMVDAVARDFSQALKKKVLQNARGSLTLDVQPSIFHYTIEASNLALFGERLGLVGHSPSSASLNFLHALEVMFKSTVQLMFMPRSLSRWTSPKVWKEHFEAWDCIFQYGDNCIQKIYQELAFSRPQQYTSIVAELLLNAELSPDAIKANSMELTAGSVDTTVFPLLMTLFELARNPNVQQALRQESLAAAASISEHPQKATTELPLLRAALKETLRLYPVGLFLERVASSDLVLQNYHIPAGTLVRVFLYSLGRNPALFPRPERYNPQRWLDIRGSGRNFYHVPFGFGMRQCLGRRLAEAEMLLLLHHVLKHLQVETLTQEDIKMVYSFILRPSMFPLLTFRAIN", "test": "Inhibitory activity against hCYP11B1 in G-402 CYP11B1 high expression stable transformants (cortisol HTRF)", "assay_type": "cell-based", "conditions": "G-402 CYP11B1 cells, 0.2 μM 11-deoxycortisol, 16 hours; read-out: hCYP11B1 Abs IC50", "experimental": "as §1, §2, §3, §4, §5, §6, §7, §8\nCYP11B1 substrate: 11-deoxycortisol (11-deoxycortisol, S4775, selleckchem). The final reaction concentration was 0.2 μM.\nas §9, §10, §11, §12"}, "CYP1A2": {"molecular_target": "CYP1A2 (Homo sapiens (Human), UniProt P05177)", "sequence (P05177 whole entry)": "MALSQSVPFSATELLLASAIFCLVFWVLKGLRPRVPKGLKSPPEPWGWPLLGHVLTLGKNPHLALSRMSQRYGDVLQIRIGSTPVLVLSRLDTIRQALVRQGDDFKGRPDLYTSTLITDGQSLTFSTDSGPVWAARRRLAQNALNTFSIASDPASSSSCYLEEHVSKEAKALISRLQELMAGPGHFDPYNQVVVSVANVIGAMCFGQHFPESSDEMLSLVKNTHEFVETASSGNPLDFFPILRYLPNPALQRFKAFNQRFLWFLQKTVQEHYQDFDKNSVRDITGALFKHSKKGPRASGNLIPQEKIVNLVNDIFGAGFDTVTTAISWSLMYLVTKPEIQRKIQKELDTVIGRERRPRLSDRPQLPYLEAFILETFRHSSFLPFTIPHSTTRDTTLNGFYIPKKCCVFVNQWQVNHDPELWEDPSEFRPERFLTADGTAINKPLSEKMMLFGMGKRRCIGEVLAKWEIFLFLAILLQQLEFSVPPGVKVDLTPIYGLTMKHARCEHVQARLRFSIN", "test": "In vitro inhibitory activity against common CYP450 enzymes: CYP1A2", "assay_type": "in vitro ADME", "conditions": "microsomes, substrate Phenacetin; read-out: IC50 CYP1A2", "experimental": "(§13) A working solution of the test compound was prepared in a solvent of dimethyl sulfoxide (DMSO) (starting at a final concentration of 50 μM, 3-fold dilution of 7 concentration points). The corresponding microsomes (CORNING, Cat No.452117) and the corresponding substrate solution were prepared (components were shown in Table 2). The working solution of the test compound and the corresponding microsomes were mixed with the corresponding substrate solution and the HLM working solution. The mixture was preheated in a 37.0° C. water bath for 10 min. NADPH cofactor (BONTAC, Cat No.BT04) was added. The resultant mixture was incubated for 10 min in a 37.0° C. water bath. The reaction was terminated by adding cold stop solution. [table] [table] The sample was centrifuged at 4000 rpm for 20 min to precipitate protein and the supernatant was transferred to HPLC water and shaken for 10 min."}, "CYP2C9": {"molecular_target": "CYP2C9 (Homo sapiens (Human), UniProt P11712)", "sequence (P11712 whole entry)": "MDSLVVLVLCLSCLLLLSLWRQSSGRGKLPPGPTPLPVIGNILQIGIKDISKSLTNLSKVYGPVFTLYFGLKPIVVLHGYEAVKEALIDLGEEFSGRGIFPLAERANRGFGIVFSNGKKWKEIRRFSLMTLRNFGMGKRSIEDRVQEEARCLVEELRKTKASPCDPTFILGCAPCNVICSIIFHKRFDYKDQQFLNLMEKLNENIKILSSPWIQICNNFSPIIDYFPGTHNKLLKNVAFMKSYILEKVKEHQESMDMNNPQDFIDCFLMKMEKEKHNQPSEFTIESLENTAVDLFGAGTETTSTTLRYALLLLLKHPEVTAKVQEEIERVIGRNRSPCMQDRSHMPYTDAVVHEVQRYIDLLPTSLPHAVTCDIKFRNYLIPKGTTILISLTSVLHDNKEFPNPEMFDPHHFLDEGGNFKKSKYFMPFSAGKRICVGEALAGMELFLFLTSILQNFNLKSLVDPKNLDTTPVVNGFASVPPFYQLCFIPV", "test": "In vitro inhibitory activity against common CYP450 enzymes: CYP2C9", "assay_type": "in vitro ADME", "conditions": "microsomes, substrate Diclofenac", "experimental": "as §13"}, "CYP2C19": {"molecular_target": "CYP2C19 (Homo sapiens (Human), UniProt P33261)", "sequence (P33261 whole entry)": "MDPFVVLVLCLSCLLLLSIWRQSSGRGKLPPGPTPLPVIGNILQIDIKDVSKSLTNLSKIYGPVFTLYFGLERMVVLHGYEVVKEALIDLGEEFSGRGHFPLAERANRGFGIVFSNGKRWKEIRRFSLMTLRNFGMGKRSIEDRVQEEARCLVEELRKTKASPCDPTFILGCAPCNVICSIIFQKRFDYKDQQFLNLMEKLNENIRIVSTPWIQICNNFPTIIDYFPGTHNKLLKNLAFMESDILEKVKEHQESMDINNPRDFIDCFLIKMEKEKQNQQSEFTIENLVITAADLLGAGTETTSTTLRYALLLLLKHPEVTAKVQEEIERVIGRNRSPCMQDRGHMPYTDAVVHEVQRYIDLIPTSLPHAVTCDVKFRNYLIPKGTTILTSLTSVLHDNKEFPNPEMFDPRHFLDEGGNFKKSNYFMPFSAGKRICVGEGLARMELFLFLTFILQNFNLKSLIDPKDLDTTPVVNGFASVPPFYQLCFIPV", "test": "In vitro inhibitory activity against common CYP450 enzymes: CYP2C19", "assay_type": "in vitro ADME", "conditions": "microsomes, substrate (S)-(+)-Mephenytoin", "experimental": "as §13"}, "cortisol levels": {"tested_on": "cortisol levels", "test": "Pharmacodynamic test in cynomolgus monkeys with ACTH stimulation: cortisol in plasma", "assay_type": "in vivo, cynomolgus monkeys (Macaca fascicularis)", "text": "(§14) Adult cynomolgus monkeys (Macaca fascicularis) with suitable body weight and age were selected. 1 male and 1 female cynomolgus monkeys were used for experiment. The adaptation period was 1 week. On the day of the experiment, monkeys were individually housed in stainless steel mesh cages for testing.\n(§15) Oral treatment and ACTH working solution (working solution diluted to the desired concentration in PBS sterile solution by ultrapure water filtration through a 0.22 μm filter using Tetracosactrin (HY-P0060, MCE)) were administered as follows: • T=0, 2 monkeys in each group were orally administered 0.5 mg/kg (compound was suspended in 5% aqueous sodium hydroxymethylcellulose solution as vehicle) in a fixed volume of 2 mL/kg; • T=+1 hour (i.e., 1 hour after administration), 14.5 μg/kg of the aforementioned ACTH working solution was injected intramuscularly.\n(§16) Sampling test: Blood samples (collected in EDTA anticoagulant tubes) were collected before oral administration (Pre-dose) and 0.5 h, 1 h, 2 h, 4 h, 6 h and 12 h after administration for cortisol concentration measurement in plasma. The blood was centrifuged at 10000 rpm for 15 minutes at 4° C., followed by separation of the plasma and uniform storage at −80° C. for further analysis using an Roche biochemical analyzer to detect aldosterone and cortisol in plasma, and a portion of the plasma (0.5 h, 1 h, 2 h, 4 h, 6 h, and 12 h after administration, and an additional blood collection after 24 h) was taken simultaneously to determine the pharmacokinetic parameters by LC/MS.\n(§17) The above experiment was repeated except that: T=0, two monkeys in each group were orally administered at a dose of 0.05 mg/kg (compound was suspended in 5% aqueous sodium hydroxymethylcellulose as vehicle) in a fixed volume of 2 mL/kg."}, "[1]": {"test": "Pharmacokinetic test in cynomolgus monkeys (LC/MS)", "assay_type": "in vivo, cynomolgus monkeys (Macaca fascicularis)", "conditions": "both sexes, cynomolgus monkey, plasma; for AUC(0-t): read-out: AUC0-24 h", "text": "as §14, §15, §16, §17"}},
  "note": "Like-named read-outs stand apart in the source and are kept apart here.",
  "data": [
    {"smiles": "CCC(=O)N[C@@H]1CCCc2c(-c3ccc4c(c3)CCC(=O)N4C)cncc21", "note": "[Baxdrostat, reference compound]", "values": [
      {"measurement": "IC50", "setting": "human CYP11B2; G-402 CYP11B2 cells, 0.2 μM 11-deoxycorticosterone, 16 hours, read-out: hCYP11B2 (AS) Abs IC50", "value": 0.0281, "unit": "µM"},
      {"measurement": "hCYP11B ½ Selectivity Fold", "setting": "human CYP11B2; hCYP11B1 IC50 relative to hCYP11B2 IC50", "value": 119.99, "unit": "Fold"},
      {"measurement": "IC50", "setting": "human CYP11B1", "value": 3.37, "unit": "µM"},
      {"measurement": "IC50", "setting": "CYP1A2", "value": "> 50", "unit": "µM"},
      {"measurement": "IC50", "setting": "CYP2C9", "value": 35.2, "unit": "µM"},
      {"measurement": "IC50", "setting": "CYP2C19", "value": 6.52, "unit": "µM"},
      {"measurement": "Cortisol Concentration in Plasma", "setting": "cortisol levels; 0.05 mg/kg oral, 0.5 h", "value": 1136.1, "unit": "pg/mL"},
      {"measurement": "Cortisol Concentration in Plasma", "setting": "cortisol levels; 0.05 mg/kg oral, 1 h (ACTH at +1 hour)", "value": 1293.5, "unit": "pg/mL"},
      {"measurement": "Cortisol Concentration in Plasma", "setting": "cortisol levels; 0.05 mg/kg oral, 2 h", "value": 1527.0, "unit": "pg/mL"},
      {"measurement": "Cortisol Concentration in Plasma", "setting": "cortisol levels; 0.05 mg/kg oral, 4 h", "value": 949.2, "unit": "pg/mL"},
      {"measurement": "Cortisol Concentration in Plasma", "setting": "cortisol levels; 0.05 mg/kg oral, 6 h", "value": 499.4, "unit": "pg/mL"},
      {"measurement": "Cortisol Concentration in Plasma", "setting": "cortisol levels; 0.05 mg/kg oral, 12 h", "value": 392.6, "unit": "pg/mL"},
      {"measurement": "Cortisol Concentration in Plasma", "setting": "cortisol levels; 0.05 mg/kg oral, Pre-dose", "value": 784.2, "unit": "pg/mL"},
      {"measurement": "Cortisol Concentration in Plasma", "setting": "cortisol levels; 0.5 mg/kg oral, 0.5 h", "value": 1004.1, "unit": "pg/mL"},
      {"measurement": "Cortisol Concentration in Plasma", "setting": "cortisol levels; 0.5 mg/kg oral, 1 h (ACTH at +1 hour)", "value": 964.8, "unit": "pg/mL"},
      {"measurement": "Cortisol Concentration in Plasma", "setting": "cortisol levels; 0.5 mg/kg oral, 2 h", "value": 1288.5, "unit": "pg/mL"},
      {"measurement": "Cortisol Concentration in Plasma", "setting": "cortisol levels; 0.5 mg/kg oral, 4 h", "value": 556.6, "unit": "pg/mL"},
      {"measurement": "Cortisol Concentration in Plasma", "setting": "cortisol levels; 0.5 mg/kg oral, 6 h", "value": 337.0, "unit": "pg/mL"},
      {"measurement": "Cortisol Concentration in Plasma", "setting": "cortisol levels; 0.5 mg/kg oral, 12 h", "value": 344.6, "unit": "pg/mL"},
      {"measurement": "Cortisol Concentration in Plasma", "setting": "cortisol levels; 0.5 mg/kg oral, Pre-dose", "value": 596.4, "unit": "pg/mL"},
      {"measurement": "Cmax", "setting": "[1]; 0.05 mg/kg, 0.05mpk oral", "value": 6.13, "unit": "ng/mL"},
      {"measurement": "Tmax", "setting": "[1]; 0.05 mg/kg, 0.05mpk oral", "value": 2, "unit": "h"},
      {"measurement": "half-life", "setting": "[1]; 0.05 mg/kg, 0.05mpk oral", "value": 10.9, "unit": "h"},
      {"measurement": "AUC(0-t)", "setting": "[1]; 0.05 mg/kg, 0.05mpk oral", "value": 90.3, "unit": "ng·h/mL"},
      {"measurement": "Cmax", "setting": "[1]; 0.5 mg/kg, 0.5mpk oral", "value": 56.1, "unit": "ng/mL"},
      {"measurement": "Tmax", "setting": "[1]; 0.5 mg/kg, 0.5mpk oral", "value": 2, "unit": "h"},
      {"measurement": "half-life", "setting": "[1]; 0.5 mg/kg, 0.5mpk oral", "value": 9.25, "unit": "h"},
      {"measurement": "AUC(0-t)", "setting": "[1]; 0.5 mg/kg, 0.5mpk oral", "value": 606, "unit": "ng·h/mL"}
    ]}
  ]
}
